From PubChem BioAssay AID1963865 (Molecular Pharmacology Branch, DTP, NCI, 2024)
pIC50: −log10 of the molar value.

Tested on: KRAS PDC multicell spheroid viability
Experiment: Anticancer human tumor 825966-067-R-J1-PDC patient-derived colon carcinoma cell line growth inhibition [KRAS2]
Conditions: for pIC50: curve of first compound; for viability, T/C: stronger effect = lower value
Outline: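 Combination screen of spheroid viability in tumor-cell co-cultures with endothelial (HUVEC) and mesenchymal stem cell stroma. Each agent was tested in half-log dilutions, topping at clinical Cmax or at 10 microM without a known Cmax.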

[1] = second compound 0.0316 µM, first compound 0.0316 µM
[2] = second compound 0.0316 µM, first compound 0.1 µM
[3] = second compound 0.0316 µM, first compound 0.316 µM
[4] = second compound 0.0316 µM, first compound 1 µM
[5] = second compound 0.0316 µM, first compound 3.16 µM
[6] = second compound 0.1 µM, first compound 0.0316 µM
[7] = second compound 0.1 µM, first compound 0.1 µM
[8] = second compound 0.1 µM, first compound 0.316 µM
[9] = second compound 0.1 µM, first compound 1 µM
[10] = second compound 0.1 µM, first compound 3.16 µM
[11] = second compound 0.316 µM, first compound 0.0316 µM
[12] = second compound 0.316 µM, first compound 0.1 µM
[13] = second compound 0.316 µM, first compound 0.316 µM
[14] = second compound 0.316 µM, first compound 1 µM
[15] = second compound 0.316 µM, first compound 3.16 µM
[16] = second compound 1 µM, first compound 0.0316 µM
[17] = second compound 1 µM, first compound 0.1 µM
[18] = second compound 1 µM, first compound 0.316 µM
[19] = second compound 1 µM, first compound 1 µM
[20] = second compound 1 µM, first compound 3.16 µM
[21] = second compound 3.16 µM, first compound 0.0316 µM
[22] = second compound 3.16 µM, first compound 0.1 µM
[23] = second compound 3.16 µM, first compound 0.316 µM
[24] = second compound 3.16 µM, first compound 1 µM
[25] = second compound 3.16 µM, first compound 3.16 µM
[26] = second compound 0.0316 µM, first compound 10 µM
[27] = second compound 0.1 µM, first compound 10 µM
[28] = second compound 0.316 µM, first compound 10 µM
[29] = second compound 1 µM, first compound 10 µM
[30] = second compound 3.16 µM, first compound 10 µM
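Further: spheroids exposed to compounds for 7 days.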
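Wherever viability, T/C is given: 100% = DMSO vehicle control viability.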

SMILES | pIC50 (second compound 0.0316 µM) | pIC50 (second compound 0.1 µM) | pIC50 (second compound 0.316 µM) | pIC50 (second compound 1 µM) | pIC50 (second compound 3.16 µM) | viability, T/C [1] [%] | viability, T/C [2] [%] | viability, T/C [3] [%] | viability, T/C [4] [%] | viability, T/C [5] [%] | viability, T/C [6] [%] | viability, T/C [7] [%] | viability, T/C [8] [%] | viability, T/C [9] [%] | viability, T/C [10] [%] | viability, T/C [11] [%] | viability, T/C [12] [%] | viability, T/C [13] [%] | viability, T/C [14] [%] | viability, T/C [15] [%] | also measured
CC1COCCN1c1cc(-c2ccnn2C)c2ccnc(-c3ccn[nH]3)c2n1 (stereo not given) + C=CC(=O)N1CCN(c2nc(OCC3CCCN3C)nc3c2CCN(c2cccc4cccc(C)c24)C3)CC1CC#N | < 5.50 | < 5.50 | 6.68 | 7.05 | 7.84 | 102 | 69.1 | 56.7 | 73.8 | 46.4 | 114 | 63.6 | 46.8 | 70.6 | 49.5 | 119 | 65 | 41.6 | 61.1 | 21.7 | viability, T/C (second compound 0.0316 µM, first compound 0.01 µM): 118%; viability, T/C (second compound 0.1 µM, first compound 0.01 µM): 101%; viability, T/C (second compound 0.316 µM, first compound 0.01 µM): 94.5%; viability, T/C (second compound 1 µM, first compound 0.01 µM): 120%; viability, T/C [16]: 123%; viability, T/C [17]: 39.6%; viability, T/C [18]: 56.3%; viability, T/C [19]: 39.3%; viability, T/C [20]: 34.4%; viability, T/C (second compound 3.16 µM, first compound 0.01 µM): 64.1%; viability, T/C [21]: 20.2%; viability, T/C [22]: 23.1%; viability, T/C [23]: 9.83%; viability, T/C [24]: 15.4%; viability, T/C [25]: 25.3%
CC1OCC2(CCN(c3cnc(Sc4ccnc(N)c4Cl)c(N)n3)CC2)C1N (stereo not given) + C=CC(=O)N1CCN(c2nc(OCC3CCCN3C)nc3c2CCN(c2cccc4cccc(C)c24)C3)CC1CC#N | 5.06 | 5.06 | 5.16 | 5.14 | 5.24 | 105 | 97 | 92.5 | 82.3 | 106 | 84.6 | 75 | 114 | 83.5 | 89.9 | 94.5 | 83.5 | 90.4 | 107 | 115 | viability, T/C [26]: 44%; viability, T/C [27]: 44.9%; viability, T/C [28]: 26.4%; viability, T/C [16]: 87.2%; viability, T/C [17]: 105%; viability, T/C [18]: 97.7%; viability, T/C [19]: 97.3%; viability, T/C [20]: 121%; viability, T/C [29]: 29.1%; viability, T/C [21]: 81.4%; viability, T/C [22]: 116%; viability, T/C [23]: 102%; viability, T/C [24]: 110%; viability, T/C [25]: 99%; viability, T/C [30]: 5.73%
CCNC(=O)CC1N=C(c2ccc(Cl)cc2)c2cc(OC)ccc2-n2c(C)nnc21 (stereo not given) + C=CC(=O)N1CCN(c2nc(OCC3CCCN3C)nc3c2CCN(c2cccc4cccc(C)c24)C3)CC1CC#N | < 5.00 | < 5.00 | < 5.00 | < 5.00 | 6.14 | 80.1 | 112 | 118 | 115 | 82.2 | 79.5 | 112 | 113 | 89.5 | 79.4 | 90 | 119 | 121 | 118 | 69.7 | viability, T/C [26]: 75.9%; viability, T/C [27]: 75.9%; viability, T/C [28]: 72.4%; viability, T/C [16]: 91.8%; viability, T/C [17]: 110%; viability, T/C [18]: 126%; viability, T/C [19]: 85.8%; viability, T/C [20]: 44.4%; viability, T/C [29]: 59.5%; viability, T/C [21]: 109%; viability, T/C [22]: 125%; viability, T/C [23]: 87.6%; viability, T/C [24]: 20.3%; viability, T/C [25]: 55.5%; viability, T/C [30]: 30.7%
